Results: article PMC12135943, “Beyond Barriers, Big Crystallization Hurdles: Atropisomerism in Beyond Rule of Five Compounds Explored by Computational and NMR Studies” (Molecular Pharmaceutics, 2025)
Converted amounts (≈) assume the structure as drawn. Read-outs that look alike come from different tables or passages of the source.

How the values were obtained:
Assay type in all cases: physicochemical
[1] = Variable temperature NMR rotational barrier calculation (modified Eyring equation); settings: for rotational energy barrier size: conclusion of NMR experiments
Procedure: This equation allows quick evaluation of the rotational energy barrier as follows: ΔG^‡=RTcoal[22.96+ln(Tcoal/δν)] where R is the universal gas constant [J/mol·K], T coal is the coalescence temperature [K], and δν is the difference of the Larmor frequencies in [Hz] for the two observed signals for the rotameric pair. The energy calculated using this equation is given in J/mol, which is then converted into kcal/mol.
^1H NMR spectra were recorded in a suitable deuterated solvent using a Bruker Avance IIIHD NMR spectrometer with a working base frequency of 400 MHz, equipped with a helium cryogenically cooled ^1H/^13C /^15N TCI probehead. The temperature limits of the probehead are from −40 °C up to 150 °C. The ^1H NMR experiments are recorded at a proton resonance frequency of 400.13 MHz, and 100.61 MHz was used for the ^13C frequency. The temperature is regulated using a Bruker Smart Variable temperature unit and calibrated using NMR-thermometer sample calibration. The assignment of the proton and carbon signals is performed using ^1H and ^13C NMR experiments, such as 1D ^1H, 1D ^13C, and 2D experiments: ^1H–^1H COSY, ^1H–^1H ROESY, ^1H–^13C HSQC, and ^1H–^13C HMBC. The chemical shifts (δH and δC) are reported in parts per million referenced to the 0.01% of nondeuterated signal of the deuterated solvent in the proton-based experiments and to the signal of the fully deuterated solvent signal in the carbon dimensions.
The evaluation of the energy barrier for the single bond rotation by experiment serves as key information for the crystallization properties of the bRo5-like molecules. Single one-dimensional proton measurements at various temperatures in 10 K steps allow the assessment of the coalescence temperature and the calculation of the rotational barrier energy, as described below. Both model compounds, ACBI1 and BI201335, show a clearly observable doubled signal set for some of the signals in the NMR spectra at 303 K. This could be attributed to presence of rotamers and/or diastereoisomers, as shown in Figure and Figure for ACBI1 and Figure and Figure for BI201335. The discernment of whether the multiple of signal sets is observed due to a slow convergence between two or more forms or the presence of diastereoisomers is most easily accessed by performing a two-dimensional proton ROESY experiment. […] At this temperature, the exchange between the proton signals could be clearly observed by the presence of cross peaks with the same phase as the diagonal peaks. The Nuclear Overhauser Enhancement (NOE) proximity cross peaks for small molecules have an antidiagonal phase. This serves as proof for the presence of rotamers with rotational barrier that could not be overcome at 303 K and therefore no exchange cross peaks are measured. […] In contrast to the ACBI1, in the ROESY spectrum at 303 K for BI201335 the exchange cross peaks are measurable.
The variable temperature NMR experiments were performed in the temperature range from 303 to 393 K with a 10 K step in between the experiments. In the case of BI201335 there are two rotameric signal pairs for which an attempt to calculate the rotational barrier could be performed. […] An estimation of the potential rotational barrier nevertheless allows an approximation within a range of energy barriers to be calculated: if the coalescence temperature was 393 K, the rotational barrier for this signal pair would be 18.8 kcal/mol. […] At the last measured point of 393 K (clearly below the experimental coalescence temperature), the rotational barrier would be 19.4 kcal/mol. At 423 K the calculated energy barrier would be 20.9 kcal/mol, and at 453 K it would be 22.4 kcal/mol. Based on the lack of exchange signals in the ROESY spectra at lower temperatures and the shape of the signals at 393 K, a coalescence temperature around 450 K seems most plausible. Thus, the rotational barrier for ACBI1 is estimated as 22.4 kcal/mol, with an error range of about 1–1.5 kcal/mol.

[2] = Approximate solvent solubility (ASS); settings: for solubility: organic solvents and solvent systems, 40 °C, organic solvent or mixture, thermodynamic from solid, stirring at 40 °C
Procedure: The approximate solubility of both compounds was determined in various organic solvents and solvent systems with a range of properties, including protic, aprotic, polar, and nonpolar solvents. Solubility tests were conducted under stirring at 40 °C, with concentrations ranging from 400 to 5 mg/mL. Solvents in which the solubility was below 5 mg/mL were classified as antisolvents. […]
Experimental procedures ACBI1:
Approximate solvent solubility (ASS):
Approximately 20.00 mg were weighed in HPLC vials, and a magnetic stirrer bar was inserted. Water bath temperature was set at 40 °C, and the initial 25 μL of the appropriate solvent was added into the vial. Stirring was initiated and the slurries were brought up to the desired set temperature. Observations were recorded and the next addition was performed according to the Table S1. The samples were stirred at 40 °C overnight, cooled down to ambient conditions and observations were recorded after 24 h.

[3] = Dynamical vapor sorption (DVS); settings: crystalline solvent-free form; 0-90% RH
Procedure: Dynamical vapor sorption data were recorded on a DVS intrinsic system from surface measurement systems (SMS) under a N2 atmosphere. Water sorption/desorption isotherms were recorded from 0% to 90% RH followed by an additional run from 90% to 0% RH in equal steps of 10% RH.

[4] = solvents in which the compound was soluble, read-out: approximate solubility in organic solvents

Structure (SMILES)	rotational barrier ([1]; calculated for 393 K, clearly below the coalescence temperature)	calculated energy barrier ([1]; calculated for 423 K)	calculated energy barrier ([1]; calculated for 453 K)	rotational energy barrier size [1]	rotational barrier (estimated) ([1]; error range of about 1–1.5 kcal/mol)	coalescence temperature (most plausible) ([1]; not reached at 393 K, estimated from signal shape and ROESY)	hydrophobicity ([2]; from solvent solubility test (Table S1))	solubility ([2]; a few solvents classified as potential antisolvents, read-out: approximate solubility in antisolvents)	solubility [2, 4]	coalescence temperature ([1]; signal pair 4.46 and 4.76 ppm at 303 K)	rotational barrier ([1]; signal pair 4.46 and 4.76 ppm, coalescence temperature 393 K)	rotational energy barrier ([1]; signal pair 4.62 and 4.95 ppm, estimated coalescence temperature 403 K)	rotational barrier ([1]; signal pair 4.62 and 4.95 ppm, if the coalescence temperature was 393 K (not reached))	coalescence temperature (estimated) ([1]; signal pair 4.62 and 4.95 ppm, not converged at 393 K)	hygroscopicity (DVS isotherm plot) [3]
Cc1ncsc1-c1ccc(CNC(=O)C2CC(O)CN2C(=O)C(NC(=O)C2(F)CC2)C(C)(C)C)c(OCCOc2ccc(CN3CCN(c4cc(-c5ccccc5O)nnc4N)CC3)cc2)c1 (centres unmarked) [ACBI1]	19.4 kcal/mol	20.9 kcal/mol	22.4 kcal/mol	above 20 kcal/mol	22.4 kcal/mol	around 450 K	hydrophobic	< 5 mg/mL	50 to 400 mg/mL (≈ 53.4 to 427 mM)	–	–	–	–	–	–
C=C[C@@H]1C[C@]1(NC(=O)[C@@H]1C[C@@H](Oc2cc(-c3csc(NC(=O)C(C)C)n3)nc3c(Br)c(OC)ccc23)CN1C(=O)[C@@H](NC(=O)OC1CCCC1)C(C)(C)C)C(=O)O [BI201335]	–	–	–	below 20 kcal/mol	–	–	–	–	75 to 400 mg/mL (≈ 86.2 to 460 mM)	393 K	18.9 kcal/mol	19.3 kcal/mol	18.8 kcal/mol	around 403 K	slight hygroscopicity
